Laboratory results published in article PMC9791652 (Journal of Medicinal Chemistry, 2022).
Values after ≈ are worked out from the molar mass of the structure shown. Where two headings read alike, the source gives them in different places.

Tests used:
[1] = mouse liver microsomes
[2] = test system: Escherichia coliΔtolC (BW25113 ΔtolC); experiment: organism not typed; assay type: cell-based
[3] = test system: noninfected zebrafish larvae; conditions: data not shown
H37Rv = assay type: cell-based, Mycobacterium tuberculosis
Mtb H37Rv ATP levels = experiment: Impact of TriSLa exposure on Mtb ATP levels; assay type: cell-based, Mycobacterium tuberculosis; conditions: 24 h exposure
[4] = test system: streptomycin starved 18b nonreplicating Mtb (ss18b-lux); assay type: cell-based, Mycobacterium tuberculosis; conditions: for drop in bacterial counts (cfu) of ss18b-lux: 7 days of exposure; for bactericidal activity against nonreplicating ss18b-lux by cfu counting: 7 days of antibiotic exposure
[5] = test system: M. marinum (expressing Wasabi) infected zebrafish larvae; assay type: in vivo; conditions: for lowest dose significantly prolonging survival of infected zebrafish: 4-day exposure in water, refreshed daily, 1 to 5 dpi
physchem = conditions: pH 7.4
[6] = test system: Mtb H37Rv NADH/NAD+ ratio; experiment: Impact of TriSLa exposure on Mtb NADH and NAD+ levels; assay type: cell-based, Mycobacterium tuberculosis

Structure (SMILES) | MIC [2] [µM] | toxicity in noninfected zebrafish larvae [3] | bacterial ATP concentrations (Mtb H37Rv ATP levels) | ss18b-lux luminescence signal [4] | bactericidal activity against nonreplicating ss18b-lux by cfu counting [4] | lowest dose significantly prolonging survival of infected zebrafish [5] [µM] | further results
CC(C)[C@H]1CO[C@]23CCN(Cc4ccccc4)C[C@H]2CCC(=O)N13 [Compound 1, (3S,7aR,11aR)-9-Benzyl-3-isopropyl-2,3,6,7,7a,8,10,11-octahydrooxazolo[2,3-j][1,6]naphthyridin-5-one] | > 100 | – | – | – | – | – | metabolic stability (in words) [1]: high clearance
CC(C)[C@H]1CO[C@]23CCN(Cc4ccc(C(F)(F)F)cc4)C[C@H]2CCC(=O)N13 [Compound 11, (3S,7aR,11aR)-3-Isopropyl-9-[[4-(trifluoromethyl)phenyl]methyl]-2,3,6,7,7a,8,10,11-octahydrooxazolo[2,3-j][1,6]naphthyridin-5-one] | 100 (≈ 39.6 µg/mL) | did not interfere with larval development or show any toxicity | concentration-dependent shutdown in bacterial ATP concentrations | time-dependent decrease in luminescence | concentration-dependent killing | 0.3 | bactericidal activity by cfu at 1× MIC (H37Rv): bacteriostatic; drop in cfu after 1 week (H37Rv): ~0.8 log; drop in cfu after 2 weeks (H37Rv): ~2.0 log; drop in bacterial counts (cfu) of ss18b-lux ([4]; 4.8 μM): 1–2 log; logD (physchem): 3.9
CC(C)[C@H]1CO[C@]23CCN(Cc4ccc(OC(F)(F)F)cc4)C[C@H]2CCC(=O)N13 [Compound 12, (3S,7aR,11aR)-3-Isopropyl-9-[[4-(trifluoromethoxy)phenyl]methyl]-2,3,6,7,7a,8,10,11-octahydrooxazolo[2,3-j][1,6]naphthyridin-5-one] | 100 (≈ 41.2 µg/mL) | did not interfere with larval development or show any toxicity | concentration-dependent shutdown in bacterial ATP concentrations | time-dependent decrease in luminescence | concentration-dependent killing | 0.3 | bactericidal activity by cfu at 1× MIC (H37Rv): bacteriostatic; drop in cfu after 1 week (H37Rv): ~0.8 log; drop in cfu after 2 weeks (H37Rv): ~2.0 log; drop in bacterial counts (cfu) of ss18b-lux ([4]; 4.8 μM): 1–2 log; bacterial load (fluorescence pixel count) in infected zebrafish ([5]; 0.5 μg/mL ([…]), 2–4 days of exposure): bacteriostatic; bacterial load (fluorescence pixel count) in infected zebrafish ([5]; 2 μg/mL (4.8 μM), between 2 and 4 days of exposure): significant decrease in the bacterial burden; infection foci in fluorescence images ([5]; 0.25 to 2 μg/mL (0.6–4.8 μM), 2 or 4-day treatment): fewer and less intense infection foci; logD (physchem): 3.4
CC(C)[C@H]1CO[C@]23CCN(Cc4ccc(C(F)(F)F)nc4)C[C@H]2CCC(=O)N13 [Compound 13, (3S,7aR,11aR)-3-Isopropyl-9-[[6-(trifluoromethyl)-3-pyridyl]methyl]-2,3,6,7,7a,8,10,11-octahydrooxazolo[2,3-j][1,6]naphthyridin-5-one] | – | did not interfere with larval development or show any toxicity | – | – | – | 1.2 | –
COc1nc2ccc(Br)cc2cc1[C@@H](c1ccccc1)[C@@](O)(CCN(C)C)c1cccc2ccccc12 [bedaquiline] | – | – | concentration-dependent shutdown in bacterial ATP concentrations | time-dependent decrease in luminescence | bactericidal | – | bactericidal activity by cfu at 1× and 2× MIC (H37Rv; H37Rv, 1× and 2× MIC (250 and 500 nM), 2 week exposure period): largely bacteriostatic; drop in bacterial counts (cfu) of ss18b-lux ([4]; 1 μM, stated as similar to 11 and 12 at 4.8 μM): 1–2 log; Mtb NADH/NAD+ ratio relative to untreated bacteria [6]: increase in the NADH/NAD^+ ratio
NNC(=O)c1ccncc1 [isoniazid] | – | – | – | increase in luminescence | no significant bactericidal activity | – | –
CO[C@H]1/C=C/O[C@@]2(C)Oc3c(C)c(O)c4c(O)c(c(/C=N/N5CCN(C)CC5)c(O)c4c3C2=O)NC(=O)/C(C)=C\C=C\[C@H](C)[C@H](O)[C@@H](C)[C@@H](O)[C@@H](C)[C@H](OC(C)=O)[C@@H]1C [rifampicin] | – | – | – | time-dependent decrease in luminescence | bactericidal | – | drop in bacterial counts (cfu) of ss18b-lux ([4]; 0.6 μM, stated as similar to 11 and 12 at 4.8 μM): 1–2 log; Mtb NADH/NAD+ ratio relative to untreated bacteria [6]: decrease in NADH/NAD^+
